Source: patent US9428504B2, “7-hydroxy-spiropipiperidine indolinyl antagonists of P2Y1 receptor” (BRISTOL-MYERS SQUIBB COMPANY, priority 2012, dated 2016)
Where a name gives a salt, the structure may show the parent alone. Read-outs that look alike come from different tables or passages of the source.

Legend:
[1] = test system: human platelet rich plasma (PRP); test: ADP induced platelet aggregation assay
[2] = biological target: cloned human P2Y1 receptors (Homo sapiens (Human), UniProt P47900); test: Binding Assay A: membrane binding assay, [33P] 2MeS-ADP
cloned human P2Y1 receptors, sequence (P47900 whole entry): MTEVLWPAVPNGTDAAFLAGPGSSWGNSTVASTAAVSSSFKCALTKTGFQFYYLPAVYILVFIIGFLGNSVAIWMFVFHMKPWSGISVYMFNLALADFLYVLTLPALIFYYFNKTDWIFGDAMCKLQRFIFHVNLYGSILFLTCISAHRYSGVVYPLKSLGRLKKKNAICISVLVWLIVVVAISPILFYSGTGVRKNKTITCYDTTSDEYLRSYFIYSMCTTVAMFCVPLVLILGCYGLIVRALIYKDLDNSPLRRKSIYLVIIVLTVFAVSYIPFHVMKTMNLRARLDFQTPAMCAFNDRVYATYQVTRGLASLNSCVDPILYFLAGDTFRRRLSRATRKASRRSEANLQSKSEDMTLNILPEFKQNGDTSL
Description: A membrane binding assay was used to identify inhibitors of [^33P] […] The cDNA clone for human P2Y1 was obtained from Incyte Pharmaceuticals and its sequence confirmed by established techniques (for a compendium of techniques used see Ausubel, F. et al. Current Protocols in Molecular Biology, John Wiley and Sons, NY, N.Y. (1995)). The essential coding sequences were subcloned into pCDNA 3.1 (Invitrogen) to produce a P2Y1 expression construct. This construct was then transfected into the human embryonic kidney cell line HEK-293 and stable transfectants selected in GENETICIN® (G418 sulfate; Life Technologies). […] Membranes were prepared by growing HEK293 #49 in 150 mm dishes in DMEM/10% FBS in the presence of 1 mg/ml G418 until cells were 80-90% confluent. Plates were then washed with cold (4° C.) D-PBS twice and cells harvested by scraping into 10 mL D-PBS. Cells were pelleted by centrifugation (1,000 g, 10 min, 4° C.) and the resulting pellet resuspended in Lysis Buffer (10 mM Tris (7.4), 5 mM MgCl2 containing Complete protease inhibitor cocktail (Roche Cat #1873580) as recommended by the manufacturer). The suspension was then homogenized in a Dounce homogenizer (10-15 strokes; B pestle, on ice) and the homogenate spun at 1,000 g, 4° C., 5 min to pellet large debris. The supernatant was centrifuged at 150,000 g, 4° C., for 1 hour and the resulting membrane pellet resuspended in 0.5-1 mL of Buffer B (15 mM HEPES (7.4), 145 mM NaCl, 0.1 mM MgCl2, 5 mM EDTA, 5 mM KCl) and stored at −70° C. until used.
Binding reactions were performed in WGA FLASHPLATE®s (PerkinElmer Life Sciences, Cat # SMP105A) in a volume of 200 μL containing ˜45 fmol of P2Y1 receptor (5 μg of total protein), 0.5 nM [^33P] […] Reactions were allowed to proceed to completion at room temperature for 1 hour and then the aqueous solution aspirated. Plates were sealed and the residual [^33P] bound to the plate determined by scintillation counting.

[3] = Homo sapiens, Platelet, read-out: PA IC50 (μM) @ 10 μM ADP, platelet aggregation induced by 10 μM ADP, human PRP
[4] = values marked *, WGA FlashPlate, [33P] 2MeS-ADP displacement, read-out: P2Y1 Ki (nM) *Using binding assay A

Row | Structure (SMILES) | IC50 [1, 3] | Ki [2, 4] | IC50 ([1]; read-out: PA IC50 (μM) @ 10 μM ADP, platelet aggregation induced by 10 μM ADP, human PRP) | Ki [2]
1 | CC(C)(C)CN1CCC2(CC1)CN(c1ccccc1NC(=O)Nc1ccc(OC(F)(F)F)cc1)c1c(O)cccc12 [Example 1, 1-(2-(7-Hydroxy-1′-neopentylspiro[indoline-3,4′-piperidine]-1-yl)phenyl)-3-(4-(trifluoromethoxy)phenyl)urea] | 1.7 µM | 10.3 nM | – | –
2 | CC(C)(C)CN1CCC2(CC1)CN(c1ncccc1NC(=O)Nc1ccc(C(C)(C)C)cc1)c1c(O)ccc(C(F)(F)F)c12 [Example 13, 1-(4-tert-Butylphenyl)-3-(2-(7-hydroxy-1′-neopentyl-4-(trifluoromethyl)spiro[indoline-3,4′-piperidine]-1-yl)pyridin-3-yl)urea] | 0.5 µM | 3.3 nM | – | –
3 | CC(C)(C)CN1CCC2(CC1)CN(c1ccccc1NC(=O)Nc1nc3ccc(Cl)cc3s1)c1c(O)ccc(F)c12 [Example 33, 1-(2-(7-Hydroxy-4-fluoro-1′-neopentylspiro[indoline-3,4′-piperidine]-1-yl)phenyl)-3-(6-chlorobenzo[d]thiazol-2-yl)urea] | 0.4 µM | 3.7 nM | – | –
4 | Cc1ccc2nc(NC(=O)Nc3ccccc3N3CC4(CCN(CC(C)(C)C)CC4)c4c(F)ccc(O)c43)sc2c1 [Example 34, 1-(2-(7-Hydroxy-4-fluoro-1′-neopentylspiro[indoline-3,4′-piperidine]-1-yl)phenyl)-3-(6-methylbenzo[d]thiazol-2-yl)urea] | 0.5 µM | 3.7 nM | – | –
5 | CC(C)c1nsc(NC(=O)Nc2ccccc2N2CC3(CCN(CC(C)(C)C)CC3)c3c(F)ccc(O)c32)n1 [Example 35, 1-(2-(4-Fluoro-7-hydroxy-1′-neopentylspiro[indoline-3,4′-piperidine]-1-yl)phenyl)-3-(3-isopropyl-1,2,4-thiadiazol-5-yl)urea] | 0.3 µM | 1.9 nM | – | –
6 | Cc1nsc(NC(=O)Nc2ccccc2N2CC3(CCN(CC(C)(C)C)CC3)c3c(Cl)ccc(O)c32)n1 [Example 42, 1-(2-(4-Chloro-7-hydroxy-1′-neopentylspiro[indoline-3,4′-piperidine]-1-yl)phenyl)-3-(3-methyl-1,2,4-thiadiazol-5-yl)urea] | 0.3 µM | 3.3 nM | – | –
7 | CC(C)c1nsc(NC(=O)Nc2ccccc2N2CC3(CCN(CC(C)(C)C)CC3)c3c(Cl)ccc(O)c32)n1 [Example 43, 1-(2-(4-Chloro-7-hydroxy-1′-neopentylspiro[indoline-3,4′-piperidine]-1-yl)phenyl)-3-(3-isopropyl-1,2,4-thiadiazol-5-yl)urea] | 0.3 µM | 4.4 nM | – | –
8 | CC(C)(C)CN1CCC2(CC1)CN(c1ccccc1NC(=O)Nc1nc3ccc(Cl)cc3s1)c1c(O)cccc12 [Example 75, 1-(6-Chlorobenzo[d]thiazol-2-yl)-3-(2-(7-hydroxy-1′-neopentylspiro [indoline-3,4′-piperidine]-1-yl)phenyl)urea] | 0.4 µM | 7.5 nM | – | –
9 | CC(C)(C)CN1CCC2(CC1)CN(c1ccccc1NC(=O)Nc1nc3ccc(Cl)nc3s1)c1c(O)ccc(Cl)c12 [Example 167, 1-(2-(4-Chloro-7-hydroxy-1′-neopentylspiro[indoline-3,4′-piperidine]-1-yl)phenyl)-3-(5-chlorothiazolo[5,4-b]pyridin-2-yl)urea, methanesulfonic acid salt] | – | – | 0.5 µM | 3.3 nM
